According to the supplement of paper PMC10307832:

Experiments:
Assay in all cases: relative viability (nuclei count vs DMSO), 5 days (fraction); higher = more cells survive
A549 = tested on: A549
Outline: (§1)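 Lung cancer cell lines, seeded in 1536-well plates, were treated the following day by pin tool with a single drug or with five library-drug doses (not always all listed) in √10 steps on top of a fixed anchor-drug dose. Cells were fixed and nuclei stained in one step after 5 days, and nuclei were counted. Relative viability is the nuclei count for treated wells divided by that for vehicle wells, reported as medians of duplicate plates.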

Calu-6 = tested on: Calu-6
Outline: as §1

EBC-1 = tested on: EBC-1
Outline: as §1

IA-LM = tested on: IA-LM
Outline: as §1

NCI-H1299 = tested on: NCI-H1299
Outline: as §1

NCI-H1703 = tested on: NCI-H1703
Outline: as §1

NCI-H2009 = tested on: NCI-H2009
Outline: as §1

NCI-H460 = tested on: NCI-H460
Outline: as §1

NCI-H661 = tested on: NCI-H661
Outline: as §1

Oc1nc(-c2ccc(C(F)(F)F)cc2)nc2c1CSCC2 [XAV939] + C[C@@H](Oc1cc(-c2cnn(C3CCNCC3)c2)cnc1N)c1c(Cl)ccc(F)c1Cl [Crizotinib] (partner 1 µM)
relative viability (A549; first compound 0.08 µM): 1.07 | relative viability (A549; first compound 0.253 µM): 0.713 | relative viability (A549; first compound 0.8 µM): 0.693 | relative viability (A549; first compound 2.53 µM): 0.633 | relative viability (Calu-6; first compound 0.08 µM): 0.822 | relative viability (Calu-6; first compound 0.253 µM): 0.719 | relative viability (Calu-6; first compound 0.8 µM): 0.7 | relative viability (Calu-6; first compound 2.53 µM): 0.758 | relative viability (EBC-1; first compound 0.08 µM): 0.213 | relative viability (EBC-1; first compound 0.253 µM): 0.223 | relative viability (EBC-1; first compound 0.8 µM): 0.165 | relative viability (EBC-1; first compound 2.53 µM): 0.182 | relative viability (IA-LM; first compound 0.08 µM): 0.792 | relative viability (IA-LM; first compound 0.253 µM): 0.876 | relative viability (IA-LM; first compound 0.8 µM): 0.398 | relative viability (IA-LM; first compound 2.53 µM): 0.444 | relative viability (NCI-H1299; first compound 0.08 µM): 0.94 | relative viability (NCI-H1299; first compound 0.253 µM): 0.978 | relative viability (NCI-H1299; first compound 0.8 µM): 0.956 | relative viability (NCI-H1299; first compound 2.53 µM): 0.958 | relative viability (NCI-H1703; first compound 0.08 µM): 0.787 | relative viability (NCI-H1703; first compound 0.253 µM): 0.621 | relative viability (NCI-H1703; first compound 0.8 µM): 0.77 | relative viability (NCI-H1703; first compound 2.53 µM): 0.583 | relative viability (NCI-H2009; first compound 0.08 µM): 1.12 | relative viability (NCI-H2009; first compound 0.253 µM): 1.04 | relative viability (NCI-H2009; first compound 0.8 µM): 1.01 | relative viability (NCI-H2009; first compound 2.53 µM): 0.96 | relative viability (NCI-H460; first compound 0.08 µM): 1.44 | relative viability (NCI-H460; first compound 0.253 µM): 0.879 | relative viability (NCI-H460; first compound 0.8 µM): 0.816 | relative viability (NCI-H460; first compound 2.53 µM): 0.874 | relative viability (NCI-H661; first compound 0.08 µM): 0.922 | relative viability (NCI-H661; first compound 0.253 µM): 0.961 | relative viability (NCI-H661; first compound 0.8 µM): 0.953 | relative viability (NCI-H661; first compound 2.53 µM): 0.969

NC(=O)Nc1cc(-c2cccc(F)c2)sc1C(=O)N[C@H]1CCCNC1 [AZD7762] + Cc1nc(NC(=O)N2CCC[C@H]2C(N)=O)sc1-c1ccnc(C(C)(C)C(F)(F)F)c1 [Alpelisib] (partner 2 µM)
relative viability (A549; first compound 0.01 µM): 0.748 | relative viability (A549; first compound 0.03162 µM): 0.86 | relative viability (A549; first compound 0.1 µM): 0.83 | relative viability (A549; first compound 0.3162 µM): 0.84 | relative viability (A549; first compound 1 µM): 0.336 | relative viability (Calu-6; first compound 0.01 µM): 1.03 | relative viability (Calu-6; first compound 0.03162 µM): 0.935 | relative viability (Calu-6; first compound 0.1 µM): 0.881 | relative viability (Calu-6; first compound 0.3162 µM): 0.411 | relative viability (Calu-6; first compound 1 µM): 0.157 | relative viability (EBC-1; first compound 0.01 µM): 0.952 | relative viability (EBC-1; first compound 0.03162 µM): 0.714 | relative viability (EBC-1; first compound 0.1 µM): 0.831 | relative viability (EBC-1; first compound 0.3162 µM): 0.763 | relative viability (EBC-1; first compound 1 µM): 0.367 | relative viability (IA-LM; first compound 0.01 µM): 0.828 | relative viability (IA-LM; first compound 0.03162 µM): 0.702 | relative viability (IA-LM; first compound 0.1 µM): 0.885 | relative viability (IA-LM; first compound 0.3162 µM): 1.07 | relative viability (IA-LM; first compound 1 µM): 0.364 | relative viability (NCI-H1299; first compound 0.01 µM): 1.16 | relative viability (NCI-H1299; first compound 0.03162 µM): 1.01 | relative viability (NCI-H1299; first compound 0.1 µM): 1.03 | relative viability (NCI-H1299; first compound 0.3162 µM): 1.04 | relative viability (NCI-H1299; first compound 1 µM): 0.942 | relative viability (NCI-H1703; first compound 0.01 µM): 0.314 | relative viability (NCI-H1703; first compound 0.03162 µM): 0.224 | relative viability (NCI-H1703; first compound 0.1 µM): 0.231 | relative viability (NCI-H1703; first compound 0.3162 µM): 0.164 | relative viability (NCI-H1703; first compound 1 µM): 0.146 | relative viability (NCI-H2009; first compound 0.01 µM): 1.3 | relative viability (NCI-H2009; first compound 0.03162 µM): 1.15 | relative viability (NCI-H2009; first compound 0.1 µM): 1.27 | relative viability (NCI-H2009; first compound 0.3162 µM): 1.08 | relative viability (NCI-H2009; first compound 1 µM): 1.11 | relative viability (NCI-H460; first compound 0.01 µM): 0.604 | relative viability (NCI-H460; first compound 0.03162 µM): 0.498 | relative viability (NCI-H460; first compound 0.1 µM): 0.54 | relative viability (NCI-H460; first compound 0.3162 µM): 0.293 | relative viability (NCI-H460; first compound 1 µM): 0.0196 | relative viability (NCI-H661; first compound 0.01 µM): 0.712 | relative viability (NCI-H661; first compound 0.03162 µM): 0.611 | relative viability (NCI-H661; first compound 0.1 µM): 0.761 | relative viability (NCI-H661; first compound 0.3162 µM): 0.491 | relative viability (NCI-H661; first compound 1 µM): 0.35
